Data published in patent publication US10906924B2, “Modulators of indoleamine 2,3-dioxygenase” (GLAXOSMITHKLINE INTELLECTUAL PROPERTY DEVELOPMENT LIMITED, priority 2017, dated 2021).
Counter-ions that a name gives are not always drawn.

Target: indoleamine 2,3-dioxygenase (IDO1) (Homo sapiens, UniProt P14902)
Assay: PBMC IDO1 assay (kynurenine by mass spectrometry)
Type: cell-based
Conditions: human PBMC stimulated with IFN-γ and LPS, 2 days incubation, kynurenine detected by mass spectrometry; read-out: IDO1 PBMC pIC50 (converted)

Chain of indoleamine 2,3-dioxygenase (IDO1) (P14902 whole entry): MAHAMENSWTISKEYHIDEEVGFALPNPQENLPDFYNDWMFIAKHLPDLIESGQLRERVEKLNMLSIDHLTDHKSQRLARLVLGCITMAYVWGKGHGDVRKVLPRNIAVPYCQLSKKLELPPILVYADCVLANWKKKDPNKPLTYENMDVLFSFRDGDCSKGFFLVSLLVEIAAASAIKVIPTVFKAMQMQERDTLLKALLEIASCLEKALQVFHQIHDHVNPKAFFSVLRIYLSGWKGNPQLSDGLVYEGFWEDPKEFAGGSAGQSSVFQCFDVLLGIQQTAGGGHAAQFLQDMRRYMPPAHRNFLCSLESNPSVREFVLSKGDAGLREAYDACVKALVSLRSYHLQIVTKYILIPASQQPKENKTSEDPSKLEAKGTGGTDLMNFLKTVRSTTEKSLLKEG

| Structure (SMILES) | IC50 |
| --- | --- |
| CCOC(=O)N1CCC2(CC1)CC(NC(=O)c1cccc3cn[nH]c13)c1ccncc1O2 (stereo not shown) [Example 33, ethyl 4′-(1H-indazole-7-carboxamido)-3′,4′-dihydrospiro[piperidine-4,2′-pyrano[2,3-c]pyridine]-1-carboxylate] | 200 nM |
| CCOC(=O)N1CCC2(CC1)CC(NC(=O)c1cncc3cn[nH]c13)c1ccccc1O2 (stereo not shown) [Example 26, ethyl 4-(1H-pyrazolo[4,3-c]pyridine-7-carboxamido)spiro[chroman-2,4′-piperidine]-1′-carboxylate] | 126 nM |
| COC(=O)N1CCC2(CC1)C[C@H](NC(=O)c1cccc3cc[nH]c13)c1cc(Br)ccc1O2 [Example 4, (S)-methyl 6-bromo-4-(1H-indole-7-carboxamido)spiro[chroman-2,4′-piperidine]-1′-carboxylate] | 3.98 nM |
| CCOC(=O)N1CCC2(CC1)C[C@H](NC(=O)c1cccc3cn(COP(=O)(O)O)nc13)c1ccccc1O2 [Example 55, 2-amino-2-(hydroxymethyl)propane-1,3-diol hemi((S)-(7-((1′-(ethoxycarbonyl)spiro[chroman-2,4′-piperidin]-4-yl)carbamoyl)-2H-indazol-2-yl)methyl phosphate)] | 126 nM |
| CCOC(=O)N1CCC2(CC1)CC(NC(=O)c1ncccn1)c1ccccc1O2 (stereo not shown) [Example 45, ethyl 4-(pyrimidine-2-carboxamido)spiro[chroman-2,4′-piperidine]-1′-carboxylate] | 794 nM |
| CCOC(=O)N1CCC2(CC1)CC(NC(=O)c1cccc3cc[nH]c13)c1c(Br)cccc1O2 (stereo not shown) [Example 17, ethyl 5-bromo-4-(1H-indole-7-carboxamido)spiro[chroman-2,4′-piperidine]-1′-carboxylate] | 39.8 nM |
| CCOC(=O)N1CCC2(CC1)CC(NC(=O)c1cccc3cn[nH]c13)c1nc(OC)ccc1O2 (stereo not shown) [Example 9, ethyl 4′-(1H-indazole-7-carboxamido)-6′-methoxy-3′,4′-dihydrospiro[piperidine-4,2′-pyrano[3,2-b]pyridine]-1-carboxylate] | 10 nM |
| CCOC(=O)N1CCC2(CC1)C[C@H](NC(=O)c1ccn[nH]1)c1cc(Br)ccc1O2 [Example 44, (S)-ethyl 6-bromo-4-(1H-pyrazole-5-carboxamido)spiro[chroman-2,4′-piperidine]-1′-carboxylate] | 631 nM |
| COC(=O)N1CCC2(CC1)C[C@H](NC(=O)c1cccc3cn[nH]c13)c1nc(OC)ccc1O2 [Example 57, methyl (S)-4′-(1H-indazole-7-carboxamido)-6′-methoxy-3′,4′-dihydrospiro[piperidine-4,2′-pyrano[3,2-b]pyridine]-1-carboxylate] | 10 nM |
| CCOC(=O)N1CCC2(CC1)CC(NC(=O)c1cccc3cn[nH]c13)c1cc(Br)cnc1O2 (stereo not shown) [Example 23, ethyl 6′-bromo-4′-(1H-indazole-7-carboxamido)-3′,4′-dihydrospiro[piperidine-4,2′-pyrano[2,3-b]pyridine]-1-carboxylate] | 79.4 nM |
| CCCC(=O)N1CCC2(CC1)C[C@H](NC(=O)c1cccc3cn[nH]c13)c1cc(Br)ccc1O2 [Example 22, (S)—N-(6-bromo-1′-butyrylspiro[chroman-2,4′-piperidin]-4-yl)-1H-indazole-7-carboxamide] | 79.4 nM |
| CCOC(=O)N1CCC2(CC1)CC(NC(=O)c1cccc3cn[nH]c13)c1cc(Br)ncc1O2 (stereo not shown) [Example 16, ethyl 6′-bromo-4′-(1H-indazole-7-carboxamido)-3′,4′-dihydrospiro[piperidine-4,2′-pyrano[2,3-c]pyridine]-1-carboxylate] | 31.6 nM |
| COC(=O)N1CCC2(CC1)C[C@H](NC(=O)c1cccc3cn(COP(=O)(O)O)nc13)c1cc(Br)ccc1O2 [Example 53, 2-amino-2-(hydroxymethyl)propane-1,3-diol hemi((S)-(7-((6-bromo-1′-(methoxycarbonyl)spiro[chroman-2,4′-piperidin]-4-yl)carbamoyl)-2H-indazol-2-yl)methyl phosphate)] | 631 nM |
| CCOC(=O)N1CCC2(CC1)C[C@H](NC(=O)c1cccc3c(COC(C)=O)[nH]nc13)c1cc(Br)ccc1O2 [Example 61, ethyl (S)-4-(3-(acetoxymethyl)-1H-indazole-7-carboxamido)-6-bromo spiro[chromane-2,4′-piperidine]-1′-carboxylate] | 1.26 nM |
| COC(=O)N1CCC2(CC1)C[C@H](NC(=O)c1cccc3cn[nH]c13)c1cc(Br)ccc1O2 [Example 5, (S)-methyl 6-bromo-4-(1H-indazole-7-carboxamido)spiro[chroman-2,4′-piperidine]-1′-carboxylate] | 5.01 nM |
| CCOC(=O)N1CCC2(CC1)CC(NC(=O)c1cccc3cn[nH]c13)c1cccnc1O2 (stereo not shown) [Example 42, ethyl 4′-(1H-indazole-7-carboxamido)-3′,4′-dihydrospiro[piperidine-4,2′-pyrano[2,3-b]pyridine]-1-carboxylate] | 501 nM |
| CCOC(=O)N1CCC2(CC1)C[C@H](NC(=O)c1cccc3cnn(C(=O)OCC)c13)c1cc(Br)ccc1O2 [Example 51, ethyl (S)-6-bromo-4-(1-(ethoxycarbonyl)-1H-indazole-7-carboxamido)spiro[chromane-2,4′-piperidine]-1′-carboxylate] | 10 nM |

Continued, values first:

| IC50 | Structure (SMILES) |
| --- | --- |
| 200 nM | CCOC(=O)N1CCC2(CC1)CC(NC(=O)c1cncc(F)c1)c1ccccc1O2 (stereo not shown) [Example 30, ethyl 4-(5-fluoronicotinamido)spiro[chroman-2,4′-piperidine]-1′-carboxylate] |
| 501 nM | CCOC(=O)N1CCC2(CC1)C[C@H](NC(=O)c1cccc3cn(COP(=O)(O)O)nc13)c1cc(Br)ncc1O2 [Example 58, (S)-ethyl 6′-bromo-4′-(2-((phosphonooxy)methyl)-2H-indazole-7-carboxamido)-3′,4′-dihydrospiro[piperidine-4,2′-pyrano[2,3-c]pyridine]-1-carboxylate] |
| 79.4 nM | CCOC(=O)N1CCC2(CC1)CC(NC(=O)c1cccnc1)c1cc(Br)ccc1O2 (stereo not shown) [Example 21, ethyl 6-bromo-4-(nicotinamido)spiro[chroman-2,4′-piperidine]-1′-carboxylate] |
| 5.01 nM | CCOC(=O)N1CCC2(CC1)C[C@H](NC(=O)c1cccc3[nH]ccc13)c1cc(Br)ccc1O2 [Example 8, (S)-ethyl 6-bromo-4-(1H-indole-4-carboxamido)spiro[chroman-2,4′-piperidine]-1′-carboxylate] |
| 200 nM | O=C(N[C@H]1CC2(CCN(C(=O)Oc3ccccc3)CC2)Oc2ccc(Br)cc21)c1cccc2cn[nH]c12 [Example 31, (S)-phenyl 6-bromo-4-(1H-indazole-7-carboxamido)spiro[chroman-2,4′-piperidine]-1′-carboxylate] |
| 126 nM | CCOC(=O)N1CCC2(CC1)C[C@H](NC(=O)c1cccc3cn(COP(=O)(O)O)nc13)c1cc(Br)ccc1O2 [Example 50, 2-amino-2-(hydroxymethyl)propane-1,3-diol hemi((S)-(7-((6-bromo-1-(ethoxycarbonyl)spiro[chroman-2,4′-piperidin]-4-yl)carbamoyl)-2H-indazol-2-yl)methyl phosphate)] |
| 158 nM | CCOC(=O)N1CCC2(CC1)CC(NC(=O)c1cccc3cn[nH]c13)c1ncccc1O2 (stereo not shown) [Example 29, ethyl 4′-(1H-indazole-7-carboxamido)-3′,4′-dihydrospiro[piperidine-4,2′-pyrano[3,2-b]pyridine]-1-carboxylate] |
| 794 nM | CCOC(=O)N1CCC2(CC1)CC(NC(=O)c1ncccc1OC)c1ccccc1O2 (stereo not shown) [Example 46, ethyl 4-(3-methoxypicolinamido)spiro[chroman-2,4′-piperidine]-1′-carboxylate] |
| 631 nM | CCOC(=O)N1CCC2(CC1)CC(NC(=O)c1ccnn1C)c1ccccc1O2 (stereo not shown) [Example 43, ethyl 4-(1-methyl-1H-pyrazole-5-carboxamido)spiro[chroman-2,4′-piperidine]-1′-carboxylate] |
| 251 nM | CCOC(=O)N1CCC2(CC1)CC(NC(=O)c1cccnc1)c1nc(OC)ccc1O2 (stereo not shown) [Example 35, ethyl 6′-methoxy-4′-(nicotinamido)-3′,4′-dihydrospiro[piperidine-4,2′-pyrano[3,2-b]pyridine]-1-carboxylate] |
| 398 nM | CCOC(=O)N1CCC2(CC1)CC(Nc1nnc(C(F)(F)F)s1)c1ccccc1O2 (stereo not shown) [Example 40, ethyl 4-((5-(trifluoromethyl)-1,3,4-thiadiazol-2-yl)amino)spiro[chroman-2,4′-piperidine]-1′-carboxylate] |
| 79.4 nM | CCOC(=O)N1CCC2(CC1)C[C@H](NC(=O)c1cccc3cn(COP(=O)(O)O)nc13)c1nc(OC)ccc1O2 [Example 56, ethyl (S)-6′-methoxy-4′-(2-((phosphonooxy)methyl)-2H-indazole-7-carboxamido)-3′,4′-dihydrospiro[piperidine-4,2′-pyrano[3,2-b]pyridine]-1-carboxylate, bis 2-amino-2-(hydroxymethyl)-1,3-propanediol salt] |
| 20 nM | COC(=O)N1CCC2(CC1)C[C@H](NC(=O)c1cccc3cn[nH]c13)c1ccccc1O2 [Example 54, methyl (S)-4-(1H-indazole-7-carboxamido)spiro[chromane-2,4′-piperidine]-1′-carboxylate] |
| 39.8 nM | CCOC(=O)N1CCC2(CC1)CC(NC(=O)c1cccc3cn[nH]c13)c1cc(CO)ccc1O2 (stereo not shown) [Example 18, ethyl 6-(hydroxymethyl)-4-(1H-indazole-7-carboxamido)spiro[chroman-2,4′-piperidine]-1′-carboxylate] |
| 200 nM | CCOC(=O)N1CCC2(CC1)C[C@H](NC(=O)c1ncc[nH]1)c1cc(Br)ccc1O2 [Example 32, (S)-ethyl 6-bromo-4-(1H-imidazole-2-carboxamido)spiro[chroman-2,4′-piperidine]-1′-carboxylate] |
| 398 nM | CCOC(=O)N1CCC2(CC1)CC(NC(=O)c1cccc3ccn(C)c13)c1ccccc1O2 (stereo not shown) [Example 38, ethyl 4-(1-methyl-1H-indole-7-carboxamido)spiro[chroman-2,4′-piperidine]-1′-carboxylate] |
| 3.98 nM | CCOC(=O)N1CCC2(CC1)C[C@H](NC(=O)c1cccc3cnn(C(C)=O)c13)c1cc(Br)ccc1O2 [Example 52, ethyl (S)-4-(1-acetyl-1H-indazole-7-carboxamido)-6-bromospiro [chromane-2,4′-piperidine]-1′-carboxylate] |
